Experimental data: US11063221B2, “Materials for electronic devices” (Merck Patent GmbH, priority 2014, dated 2021)
In brackets after ≈: the same amount, converted by molar mass.

Experiment: Solubility of host materials (Table 4, solution-processed OLEDs)
Assay type: physicochemical
Conditions: Example V8

Row | SMILES | Solubility / processability from solution (in words)
1 | c1ccc(-c2c3ccccc3c(-c3cccc4c3ccc3cc5ccccc5cc34)c3ccccc23)cc1 [VH-3] | cannot be processed from solution at all owing to the low solubility

Same assay, conditions: host material; solvent not given (emission-layer mixture is dissolved in toluene)

Row | SMILES | Solubility [mg/mL]
2 | c1ccc2cc(-c3c4ccccc4c(-c4cccc5ccccc45)c4ccccc34)ccc2c1 [VH-4] | 44 (≈ 102 mM)
3 | c1ccc(-c2cc(-c3ccccc3)cc(-c3c4ccccc4c(-c4cccc5c4ccc4cc6ccccc6cc45)c4ccccc34)c2)cc1 [VH-1] | 70 (≈ 111 mM)
4 | c1ccc(-c2c3ccccc3c(-c3cccc4c3ccc3cc5ccccc5cc34)c3ccccc23)cc1 [VH-3] | <1
5 | Cc1c2ccccc2cc2c1ccc1c(-c3c4ccccc4c(-c4ccccc4)c4ccccc34)cccc12 [H-1] | 40 (≈ 80.9 mM)
6 | CC(C)Cc1c2ccccc2cc2c1ccc1c(-c3c4ccccc4c(-c4ccccc4)c4ccccc34)cccc12 [H-2] | 45 (≈ 83.8 mM)
